Experimental data as given in article PMC11451537, “P2X7 receptors exhibit at least three modes of allosteric antagonism” (Science Advances, 2024).
Positions count from the first letter of the chain named.

Assays:
Type in all cases: cell-based
rP2X7 = biological target: T1, rP2X7 (Rattus norvegicus, UniProt Q64663); assay: TEVC inhibition dose-response (IC50), wild-type rP2X7 in Xenopus laevis oocytes; parameters: the rP2X7-WT construct used for electrophysiology experiments is unmodified full-length, wild-type rP2X7; expressed in transfected cells; host or cells: Xenopus laevis oocytes injected with mRNA made from pcDNA3.1x; settings: for IC100 (100% inhibitory concentration): calculated from IC50 values, concentration applied in the recovery experiments; for IC50: wild-type rP2X7, TEVC, 100 μM ATP, 60 s antagonist pre-application, mean ± SD, triplicate
T1 sequence (Q64663 1-595): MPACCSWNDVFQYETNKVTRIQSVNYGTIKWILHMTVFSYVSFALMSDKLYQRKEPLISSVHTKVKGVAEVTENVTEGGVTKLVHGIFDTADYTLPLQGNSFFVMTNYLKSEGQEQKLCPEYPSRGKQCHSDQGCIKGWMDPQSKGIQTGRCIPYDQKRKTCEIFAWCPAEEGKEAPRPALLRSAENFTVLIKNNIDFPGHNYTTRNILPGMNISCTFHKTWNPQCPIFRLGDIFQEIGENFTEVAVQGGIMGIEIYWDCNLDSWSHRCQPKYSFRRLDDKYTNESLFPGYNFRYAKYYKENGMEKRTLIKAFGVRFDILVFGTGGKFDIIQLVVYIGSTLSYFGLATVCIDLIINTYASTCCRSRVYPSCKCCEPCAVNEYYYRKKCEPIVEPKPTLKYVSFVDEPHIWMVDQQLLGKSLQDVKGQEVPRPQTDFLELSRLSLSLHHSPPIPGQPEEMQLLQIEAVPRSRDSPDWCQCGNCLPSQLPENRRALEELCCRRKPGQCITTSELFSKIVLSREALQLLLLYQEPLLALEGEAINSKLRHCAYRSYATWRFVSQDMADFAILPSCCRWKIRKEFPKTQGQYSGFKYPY
Source text: (§1) To evaluate the inhibitory response of an antagonist for a dilution series, an initial excitatory signal was evoked at a subtype-specific concentration of ATP. Next, the antagonist was applied at a test concentration for 60 s and then coapplied at the same test concentration of the antagonist with the identical subtype-specific concentration of ATP. The antagonized signal was then normalized against the preceding excitatory signal evoked by ATP for each individual oocyte tested. The pre- and post-antagonist signals were evoked by 10 μM ATP for hP2X1, 10 μM ATP for hP2X2, 1 μM ATP for hP2X3, 50 μM ATP for hP2X4, and 100 μM ATP for P2X7. For the K297V mutation in rP2X7, pre- and post-antagonist signals were evoked by 300 μM ATP. Each dataset was then fit to a nonlinear regression named “[inhibitor] vs. response – Variable slope (four parameters)” in GraphPad Prism 9 to produce a sigmoidal curve and afford an IC50 value. Each singular condition was used to generate an average which is reported plus or minus its SD between three discrete trials.

rP2X7-F88A = biological target: T2, rP2X7-F88A (Rattus norvegicus, UniProt Q64663, F88A); assay: TEVC inhibition dose-response, rP2X7-F88A mutant; settings: read-out: IC50 (inhibitory potency), F88A
T2 sequence (Q64663 1-595 F88A): T1 sequence (Q64663 1-595) with F88A
Source text: Structural determination of the full-length, wild-type rP2X7 was completed using a construct previously described containing no truncations or mutations ([16]). Furthermore, the rP2X7-WT construct used for electrophysiology experiments is unmodified full-length, wild-type rP2X7 with no green fluorescent protein (GFP), protease sites, or affinity tags present. The hP2X1-WT, hP2X2-WT, hP2X3-WT, hP2X4-WT, and hP2X7-WT constructs used for electrophysiology are similarly unmodified full-length, wild-type receptor constructs with no GFP, protease sites, or affinity tags present. Mutations to the rP2X7-WT construct used for electrophysiology experiments were made directly in the pcDNA3.1x plasmid. These constructs included the following: rP2X7-K297A, rP2X7-K297G, rP2X7-K297M, rP2X7-K297Q, rP2X7-K297V, rP2X7-Y298A, rP2X7-Y298G, rP2X7-Y298V, rP2X7-Y298L, rP2X7-R316A, rP2X7-R316G, rP2X7-R316Q, rP2X7-R316H, rP2X7-F88A, rP2X7-F103A, and rP2X7-Y295A.
as §1

hP2X2 = biological target: T3, hP2X2 (Homo sapiens, UniProt Q9UBL9); assay: TEVC inhibition dose-response (IC50), hP2X2 in Xenopus laevis oocytes; settings: 10 μM ATP, mean ± SD, triplicate
T3 construct: The hP2X1-WT, hP2X2-WT, hP2X3-WT, hP2X4-WT, and hP2X7-WT constructs used for electrophysiology are similarly unmodified full-length, wild-type receptor constructs; expressed in transfected cells; host or cells: Xenopus laevis oocytes injected with mRNA made from pcDNA3.1x
T3 sequence (Q9UBL9 1-471): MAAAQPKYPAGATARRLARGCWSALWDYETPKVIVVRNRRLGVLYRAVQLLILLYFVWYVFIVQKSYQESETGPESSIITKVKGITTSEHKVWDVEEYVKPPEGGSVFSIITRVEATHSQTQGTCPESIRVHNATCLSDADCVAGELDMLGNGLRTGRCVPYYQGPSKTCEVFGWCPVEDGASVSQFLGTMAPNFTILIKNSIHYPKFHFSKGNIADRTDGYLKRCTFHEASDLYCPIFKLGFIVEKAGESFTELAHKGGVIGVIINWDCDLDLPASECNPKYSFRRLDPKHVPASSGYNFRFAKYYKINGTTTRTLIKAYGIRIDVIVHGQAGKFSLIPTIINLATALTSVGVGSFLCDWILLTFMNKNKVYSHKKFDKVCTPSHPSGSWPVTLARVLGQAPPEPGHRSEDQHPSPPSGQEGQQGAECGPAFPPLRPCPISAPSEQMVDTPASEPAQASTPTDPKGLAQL
Source text: as §1

Structure (SMILES)	IC100 (100% inhibitory concentration) (rP2X7) [µM]	IC50 (rP2X7) [nM]	IC50 (rP2X7-F88A) [nM]	IC50 (hP2X2) [nM]
Clc1cccc(-c2nnnn2Cc2cccnc2)c1Cl [A438079]	6.6	550 ± 113	14000 ± 1000	–
Clc1cccc(-n2nnnc2NCc2ccccc2Oc2ccccn2)c1Cl [A839977]	1	116 ± 13	1900 ± 200	–
O=C(NCC12CC3CC(CC(C3)C1)C2)c1cc(CCCNCCCO)ccc1Cl [AZD9056]	3	300 ± 100	130 ± 10	–
CN1C(=O)CC[C@H]1C(=O)NCc1cccc(C(F)(F)F)c1Cl [GSK1482160]	81	3600 ± 500	13000 ± 3000	–
O=C(NCC1(N2CCN(c3ccccc3)CC2)CCOCC1)c1cccnc1Sc1ccccc1 [JNJ47965567]	1.3	22 ± 6	800 ± 100	–
O=S(=O)(O)c1ccc(N=C2C=CC(=C(c3ccc(Nc4ccc(S(=O)(=O)O)cc4)cc3)c3ccc(Nc4ccc(S(=O)(=O)O)cc4)cc3)C=C2)cc1 [methyl blue]	108	4000 ± 1000	5000 ± 2000	13000 ± 2000
